Reference: patent US11000033B2, “Ketone or oxime compound, and herbicide” (NISSAN CHEMICAL CORPORATION, priority 2014, dated 2021)

Compound: CON=C(C)CC1CC(OC)=C(c2c(C)cc(O)cc2C)C1=O (centres unmarked) [6-069]
- melting point: 192 to 195 °C

Compound: CON=C(C)CC1CC(OC)=C(c2c(C)cc(OCC(F)(F)F)cc2C)C1=O (centres unmarked) [6-042]
- melting point: 117 to 119 °C
